According to article PMC10303846, “In vitro antiplasmodial activity and toxicological profile of extracts, fractions and chemical constituents of leaves and stem bark from Dacryodes edulis (Burseraceae)” (BMC Complementary Medicine and Therapies, 2023):
Converted amounts (≈) assume the structure as drawn. Like-named read-outs stand apart in the source and are kept apart here.

Legend:
[1] = tested on: chloroquine-sensitive Pf3D7 (MRA-102) P. falciparum strain; assay: SYBR green I-based fluorescence P. falciparum growth inhibition assay, Pf3D7; type: cell-based; conditions: Plasmodium falciparum, read-out: IC50 ± SD Pf3D7
Description: (§1) The chloroquine-sensitive Pf3D7-(MRA-102) and chloroquine-resistant PfDd2-(MRA-150) P. falciparum strains were maintained as previously described in fresh O^+ human red blood cells at 4% haematocrit in complete RPMI 1640 medium [500 mL RPMI 1640 (Gibco, UK) supplemented with 25 mM HEPES (Gibco, UK), […] (Gibco, USA), 1X hypoxanthine (Gibco, USA) and […] gentamicin (Gibco, China)] and incubating at 37 °C in a humidified atmosphere with 5% CO2. The medium was renewed daily to propagate the culture. Giemsa-stained thin blood smears were examined microscopically under immersion oil to monitor cell-cycle transition and parasitemia evolution. O^+ human red blood cells were obtained from a consent volunteer donor (Supplementary material).
(§2) Before each experiment, synchronized ring-stage parasite were obtained by 5% sorbitol (w/v) treatment with respect to Lambros and Vanderberg, 1979 [12]. It is crucial to note that, using cultures over mixed stage cultures can enable the test molecules to interact with all three stages (ring, trophozoite, and schizont) of the 48 h long life cycle of P. falciparum in culture.
(§3) A drug sensitivity assay was carried out in 96-well microtitration plates using a SYBR green I-based fluorescence assay. This assay is specifically based on the ability of SYBR green to give strong fluorescence only in the presence of parasite DNA during cell proliferation.
(§4) Shortly, sorbitol-synchronized ring stage parasites (hematocrit: 1%, parasitemia: 2%, 90 μl) under normal culture conditions were incubated in the presence of prediluted extracts, fractions, isolated compounds and reference drug (10 μL) followed by incubation at 37℃ for 72 h. After incubation, 100 μL of SYBR Green I buffer [6 μL of 10,000 × SYBR Green I (Invitrogen) + 600 μL of Red Blood Cells lysis buffer {Tris (25 mM; pH 7.5)} + 360 μL of EDTA (7.5 mM) + 19,2 μL of parasites lysis solution {saponin (0.012%; wt/vol)} and 28,8 μL of Triton X-100 (0.08%; vol/vol)}] was added to each well, mixed twice gently with a multichannel pipette and incubated in the dark at 37℃ for 1 h. Fluorescence was measured using a TECAN M 200 Microplate reader with excitation and emission at 485 and 538 nm, respectively. The fluorescence counts were plotted against the logarithm of the sample concentration and the 50% inhibitory concentration (IC50) was determined by analysis of dose–response curves using GraphPad Prism 5.0. Experiments were performed in duplicate.

[2] = tested on: chloroquine-resistant (multidrug-resistant) PfDd2 (MRA-150) P. falciparum strain; assay: SYBR green I-based fluorescence P. falciparum growth inhibition assay, PfDd2; type: cell-based, Plasmodium falciparum; conditions: for IC50: Plasmodium falciparum, read-out: IC50 ± SD PfDd2; for antiplasmodial activity class on PfDd2: class by IC50 criteria of b51, Dd2 strain only
Description: as §1, §2, §3, §4

[3] = tested on: chloroquine-resistant (Dd2) strain of P. falciparum; conditions: Zofou and colleagues (2013) ref 9; cited from earlier work
[4] = Resazurin-based in vitro cytotoxicity assay; type: cell-based; conditions: mouse
Description: The cytotoxicity profile of extracts, fractions and isolated compounds was assessed using the resazurin-based assay essentially as previously described against RAW 264.7 cells duly cultivated in complete Dulbecco′s Modified Eagle′s Medium (DMEM) that contain 13.5 g/L of DMEM (Sigma Aldrich), 10% fetal bovine serum (Sigma Aldrich), 0.2% sodium bicarbonate (w/v) (Sigma Aldrich) and 50 μg/mL of gentamicin (Sigma Aldrich). Globally, macrophages (Raw cells) were seeded into 96-well cell-culture flat-bottomed plates at a density of 10^4 cells in 100 μL of complete medium/well and placed in incubation for 24 h at 37℃, and 5% CO2 allowing cell adhesion. Following cell adhesion, ten microliters of each serially diluted test sample solution was added to assay plates and left in incubation for 48 h under the same experimental conditions. Growth control (1% DMSO-100% growth) and positive control wells (podophyllotoxin at 20 μM) were included in the experimental plates. Cell proliferation was checked by adding 10 μL of a stock solution of resazurin (0.15 mg/mL in sterile PBS) to each well followed by an additional incubation of 4 h in the same culture conditions. Fluorescence was then read using Tecan Infinite M200 fluorescence multiwell plate reader (Tecan) at an excitation/emission of 530/590 nm. The results were expressed as 50% cytotoxic concentrations (CC50) and selectivity indices (CC50 Mammalian cell/IC50 Pf3D7) were calculated for each test substance.

[5] = tested on: P. falciparum 3D7 and Dd2 strains; assay: SYBR green antiplasmodial assay, results stated for both strains together; type: cell-based, Plasmodium falciparum; conditions: for Resistance Index (RI): PfDd2 versus Pf3D7; for antiplasmodial activity class on both Pf3D7 and PfDd2: class by IC50 criteria of b51
Text: The medium was renewed daily to propagate the culture. Giemsa-stained thin blood smears were examined microscopically under immersion oil to monitor cell-cycle transition and parasitemia evolution. O^+ human red blood cells were obtained from a consent volunteer donor (Supplementary material).
as §2, §3, §4

[6] = reference drugs, unit nM printed with the name
[7] = Raw cells, 48 h, resazurin, read-out: CC50
[8] = SYBr Green based assay, 72 h, chloroquine-sensitive strain
[9] = SYBr Green based assay, 72 h, multidrug-resistant strain

SMILES | IC50 [1, 8] [µg/mL] | IC50 [2, 9] [µg/mL] | CC50 at 48 h [4] [µg/mL] | also measured
C[C@@H]1CC[C@H]2[C@@H](C)C(=O)O[C@@H]3O[C@@]4(C)CC[C@@H]1[C@]32OO4 [Artemisinin, reference compound] | – | – | – | IC50 [1, 6]: 14.66 ± 0.11 nM; IC50 [2, 6]: 18.9 ± 0.13 nM
CCN(CC)CCCC(C)Nc1ccnc2cc(Cl)ccc12 (centres unmarked) [Chloroquine, reference compound] | – | – | – | IC50 [1]: 4.36 ± 0.53 nM; IC50 [2]: 133 ± 0.16 nM
COC(=O)c1cc(O)c(O)c(O)c1 [DES4, methyl 3,4,5-trihydroxybenzoate] | – | – | – | IC50 Dd2 [3]: 0.56 µg/mL (≈ 3.04 µM)
COc1cc(O)c2c(=O)c3c(C)cc(O)cc3oc2c1 [compound 2, Griseoxanthone C] | – | – | – | IC50 ([1]; 72 h): > 25 µg/mL; IC50 ([2]; 72 h): > 25 µg/mL; CC50 at 48 h [4, 7]: > 100 µg/mL
COc1c(O)cc2c(=O)oc3c(OC)c(O)cc4c(=O)oc1c2c34 [compound 3, 3,3′-O-dimethylellagic acid] | 1.17 ± 0.04 | 1.36 ± 0.14 | > 100 | Resistance Index (RI) [5]: 1.16; antiplasmodial activity class on both Pf3D7 and PfDd2 [5]: pronounced (IC50 ≤ 5 μg/mL: pronounced activity)
COc1cc2c(=O)oc3c(OC)c(O)cc4c(=O)oc(c1OC)c2c34 [compound 4, 3,3′,4-tri-O-methylellagic acid] | > 25 | 0.63 ± 0.27 | > 100 | –
COc1c(O)cc2c(=O)oc3c(OC)c(OC4OCC(O)C(OC(=O)c5cc(O)c(O)c(O)c5)C4O)cc4c(=O)oc1c2c34 [compound 5, 3,3″-di-O-methylellagic acid 4-O-(3″-galloyl)-β-D-xylopyranoside] | 1.86 ± 0.18 | 1.76 ± 0.14 | > 100 | Resistance Index (RI) [5]: 1.12
O=C(O)c1ccc(O)c(O)c1 [compound 6, 3,4-dihydroxybenzoic acid] | – | – | – | IC50 ([1]; 72 h): > 25 µg/mL; IC50 ([2]; 72 h): 17.09 ± 0.06 µg/mL; antiplasmodial activity class on PfDd2 [2]: moderate (10 < IC50 ≤ 20 μg/mL: moderate activity); CC50 at 48 h [4, 7]: > 100 µg/mL
CCCCCC(=O)Cc1cc(OC)cc(O)c1C(=O)Oc1cc(CCCCC)c(C(=O)O)c(OC)c1 [compound 7, Confluentic acid] | > 25 | > 25 | > 100 | –
CCCCCCCCCCCCCCCCCCCCCCCC(=O)OCC(O)CO (centres unmarked) [compound 8, Glyceryl-1-tetracosanoate] | > 25 | > 25 | > 100 | –
CC(=O)OCC(Cc1ccccc1)NC(=O)C(Cc1ccccc1)NC(=O)c1ccccc1 (centres unmarked) [compound 9, Auranthiamide acetate] | > 25 | > 25 | > 100 | –
CCOC(=O)c1cc(O)c(O)c(O)c1 [compound 10, Ethyl gallate] | 1.15 ± 0.1 | 2.86 ± 0.07 | > 100 | Resistance Index (RI) [5]: 2.48; antiplasmodial activity class on both Pf3D7 and PfDd2 [5]: pronounced (IC50 ≤ 5 μg/mL: pronounced activity)
CC(=O)O[C@H]1CC[C@]2(C)[C@H]3CC=C4[C@@H]5CC(C)(C)CC[C@]5(C)CC[C@@]4(C)[C@]3(C)CC[C@H]2C1(C)C [compound 11, β-amyrin acetate] | > 25 | > 25 | > 100 | –
CC1(C)CC[C@]2(C)CC[C@]3(C)C(=CC[C@@H]4[C@@]5(C)CC[C@H](O)C(C)(C)[C@@H]5CC[C@]43C)[C@@H]2C1 [compound 12, β-amyrin] | > 25 | > 25 | – | –
C/C(=C/CCC(C)C1CCC2(C)C3=CCC4C(C)(C)C(=O)CCC4(C)C3CCC12C)C(=O)O (centres unmarked) [compound 13, 3-oxo-lanosta-7,24-Z-dien-26-oid acid] | > 25 | 14.21 ± 0.11 | – | antiplasmodial activity class on PfDd2 [2]: moderate (10 < IC50 ≤ 20 μg/mL: moderate activity); CC50 at 48 h ([4]; RAW 264.7 macrophage cells, Raw cells, 48 h, resazurin, read-out: CC50): > 100 µg/mL
